Laboratory results reported in article PMC9332204, “Study of Novel Peptides for Antimicrobial Protection in Solution and on Cotton Fabric” (Molecules, 2022).

Experiments:
[1] = system: B. cereus; test: Disc test on agar medium; type: cell-based, Bacillus cereus; conditions: discs, gentamicin disc 10 µg
Procedure: (§1) Initially, the compounds were tested on an agar medium using commercial discs with gentamicin (10 µg) as a standard against B. cereus and P. aeruginosa used as model bacterial strains. As a result, no inhibition zones were observed around the discs with the compounds against both tested strains. With gentamicin, zones (mm in diameter) of 15 mm against B. cereus, and 12 mm against P. aeruginosa, were measured.
(§2) The antibacterial activity of the investigated compounds was tested against Gram-positive Bacillus cereus and Gram-negative Pseudomonas aeruginosa used as model strains (Collection of the Institute of Microbiology, Bulgarian Academy of Sciences). Microbial cultures were maintained at 4 °C on meat-peptone agar (MPA) slants and transferred monthly.

[2] = system: P. aeruginosa; test: Disc test on agar medium; type: cell-based, Pseudomonas aeruginosa; conditions: discs, gentamicin disc 10 µg
Procedure: as §1, §2

[3] = system: replication of HAdV-5 in HEp-2 cells; test: Antiviral activity assay, CPE inhibition; type: cell-based; conditions: Human adenovirus sp., HEp-2, read-out: IC50, antiviral activity on the replication of HAdV-5
Procedure: For checking the viral load, the antiviral screening based on the viral yield reduction technique was used. The cytopathic inhibition assay (CPE) utilizes 100 CCID50 loading in 0.1 mL of a monolayer of confluent cells in 96-well plates. After 1 h of virus adsorption, the extract was added in various concentrations, and cells were incubated for 48 h at 37 °C. The viable cells were stained according to the neutral red uptake procedure and the percentage of CPE inhibition for each concentration of the test sample was calculated using the following formula: % CPE = [ODtest sample − ODvirus control]/[ODtoxicity control − ODvirus control] × 100. The concentration of the material inhibition 50% of viral replication when compared to the virus control was defined as the 50% inhibitory concentration (IC50). The ratio CC50/IC50 was calculated to evaluate the selectivity index (SI).

Row | Structure (SMILES) | inhibition zone (mm in diameter) [1] [mm] | inhibition zone (mm in diameter) [2] [mm] | IC50 [3] [µM]
1 | CNC(C)C1CCC(N)C(OC2C(N)CC(N)C(OC3OCC(C)(O)C(NC)C3O)C2O)O1 (stereo not drawn) [gentamicin] | 15 | 12 | –
2 | NC(=O)c1ncn([C@@H]2O[C@H](CO)[C@@H](O)[C@H]2O)n1 [Ribavirin] | – | – | 115
